IC50 and inhibition data for one compound are collected here from patent US8148387B2, “AKT and P70 S6 kinase inhibitors” (Eli Lilly and Company, priority 2008, dated 2012).

Each structure is given as a SMILES string. Read-outs that look alike come from different tables or passages of the source.

Assay [1] deals with T1, AKT1 (Homo sapiens, UniProt P31749).
T1 construct: His tag; host or cells: insect cells
The assay can be described thus: AKT1 In Vitro Enzyme Assay (Transcreener Kinase ADP-FP). Type of assay: biochemical. The settings on record: 20 micromolar ATP; read-out: IC50 against AKT1. As for the experimental part: Compound IC50 values against AKT1 target are determined using the AKT1 Transcreener™ Kinase ADP-FP Assay. This assay assesses the activity of AKT1 in the presence of compound inhibitors by measuring the concentration of ADP formed in a kinase reaction. The kinase reactions (25 μL reaction volumes) are performed in 96-well half-area black polystyrene plates. ATP is added to start the reactions. Final reaction conditions are 56 millimolar HEPES pH 7.4, 0.008% TRITON™ X-100, 5 millimolar magnesium chloride, 30 micromolar Crosstide peptide, 20 micromolar ATP, hAKT1 Human Recombiant, V-AKT Murine Thymoma Viral Oncogene Homolog 1, histidine-tagged, expressed in insect cells, 4% DMSO and serial dilutions of compound (diluted 1:3 from 20,000 to 1 nanomolar). […] Quenched reactions are incubated for 4-16 hours, and then read in a Tecan Ultra Evolution plate reader in Fluorescence Polarization mode using polarizing filters of Ex612nm and Em633nm wavelength. […] The IC50 value for each compound is derived using percent inhibition data which is calculated using the micromolar ADP reaction data relative to on-plate controls (active enzyme versus 100 millimolar inhibited enzyme controls). […]

For assay [2], the system named is phosphorylation of the serine 240/244 site of S6RP. The assay can be described thus: p70 S6K/AKT In Vivo Target Inhibition, U87MG xenograft, pS6. The settings on record: Mus musculus, U-87 MG, IV Dose 12.5 mpk, U87MG tumors, read-out: p(S240) S6 - % inhibition. On the set-up: species or system athymic nude mice. As for the experimental part:
(§1) U87MG human glioblastoma cells (5×106) are subcutaneously implanted into the flank of athymic nude mice in 0.2 mL of matrigel. Two weeks post-implantation, mice are dosed orally or parenterally according to a time course, single dose/single time point, or dose response protocol for the determination of TMED50 (threshold minimum effective dose). Tumors are flash frozen at harvest and blood is collected for the determination of parent compound plasma exposure and the calculation of TMEC50 (threshold minimum effective concentration) in the case of dose response studies. Tumors or tissues are pulverized in liquid N2 and lysed in 400 μL of XY Lysis Buffer (10 μg/mL Leupeptin, 10 μg/mL Trypsin-Chymotrypsin Inhibitor, 10 μg/mL Tosyl phenyl-alanyl chloromethyl ketone, 10 μg/mL Aprotinin, 60 mM Beta-Glycerol Phosphate, 1% Triton X100, 25 mM Tris pH 7.5, 2.5 mM Pyrophosphate, 150 mM NaCl, 2 mM p-tosyl-L-arginine methyl ester, 15 mM para-nitrophenyl phosphate, 5 mM Benzamidine, 1 mM Na Vanadate, 10 mM NaF, 50 μg/mL phenyl-methane sulfonyl fluoride, 1 mM 1,4-Dithiothreitol (DTT), 15 mM EDTA pH 8.0, 5 mM EGTA pH 8.0, 1 μM Microcystin, 1 μM Okadaic Acid, and 1 Roche Complete protease inhibitor mini-tablet per 10 mL) using Lysing Matrix D tubes (MP Biomedicals, Solon, Ohio, cat#6913-500) and a BIO101 Thermo Savant Fast Prep FP12. Lysates are aliquoted and either assayed immediately or stored at −80° C. for later testing. In Vivo Target Inhibition of p70 S6K and AKT is measured utilizing Meso Scale Discovery (Gaithersburg, Md.) ELISA technology to assess effects on phosphorylation of the serine 240/244 site of the downstream effector S6RP. Phosphorylation of p70 S6K(T389), AKT(5473) and GSK3β(S9) is also assessed using this technology in a multiplex format. In summary, 20 μg of lysate is added to carbon electrode containing 96-well plates pre-spotted with the appropriate capture antibodies. The protein of interest is probed using a ruthenium labeled detection antibody. Upon the passage of current over the electrode in the presence of read buffer containing the co-reactant TPA, electro-chemiluminescence results in the generation of light which is quantified and recorded using the MSD Sector 6000 instrument. For each study, percent inhibitions are calculated relative to the vehicle control group and ANOVA analysis is performed using the JMP software package for the determination of statistical significance.

Assay [3] deals with Phosphorylation of p70 S6K(T389). The assay can be described thus: p70 S6K/AKT In Vivo Target Inhibition, U87MG xenograft, p-p70 S6K. On the set-up: species or system athymic nude mice. The settings on record: Mus musculus, U-87 MG, IV Dose 12.5 mpk, U87MG tumors. As for the experimental part: as §1
In assay [4] the test system is Phosphorylation of GSK3β(S9). Kind of assay: p70 S6K/AKT In Vivo Target Inhibition, U87MG xenograft, pGSK3β. The following applies: Mus musculus, U-87 MG, IV Dose 12.5 mpk, U87MG tumors, read-out: p(S9)GSK 3β - % inhibition. On the set-up: species or system athymic nude mice. As for the experimental part: as §1

T1 sequence (P31749 whole entry): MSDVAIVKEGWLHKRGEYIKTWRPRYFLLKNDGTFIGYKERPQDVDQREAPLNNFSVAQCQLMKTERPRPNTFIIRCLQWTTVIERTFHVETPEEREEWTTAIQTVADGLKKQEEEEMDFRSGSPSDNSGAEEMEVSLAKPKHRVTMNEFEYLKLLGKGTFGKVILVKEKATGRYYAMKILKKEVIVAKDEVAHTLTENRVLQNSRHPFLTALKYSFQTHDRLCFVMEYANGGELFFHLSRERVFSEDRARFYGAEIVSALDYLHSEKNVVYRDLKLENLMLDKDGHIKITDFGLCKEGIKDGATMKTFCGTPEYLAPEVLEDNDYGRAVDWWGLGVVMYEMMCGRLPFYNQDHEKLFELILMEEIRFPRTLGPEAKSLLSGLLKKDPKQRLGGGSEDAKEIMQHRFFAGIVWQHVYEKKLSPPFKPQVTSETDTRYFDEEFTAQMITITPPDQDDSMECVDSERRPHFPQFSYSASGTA

A word on the IC50: it is the concentration that inhibits the measured activity by half. By inhibition is commonly meant how much of the control response was suppressed. As to `CN(C)CCn1cc(-c2ccc(F)c(C(F)(F)F)c2)nc1C1CCN(c2ncnc3c2C(C)(C)C(=O)N3)CC1` [Example 31], the 50% inhibitory concentration (IC50) in assay [1] came to 6 nM. The inhibition at 12.5 mg/kg in assay [2] (1 hr post IV dose) was 79.2%; in assay [2] (2 hr post IV dose) it was 87.6%; in assay [2] (4 hr post IV dose) it was 94.9%; in assay [2] (6 hr post IV dose) it was 91.7%; in assay [2] (8 hr post IV dose), 96.4%; in assay [2] (24 hr post IV dose) it was 45%. Also, the inhibition at 12.5 mg/kg was 77.3% in assay [3] (1 hr post IV dose); 76.1% in assay [3] (2 hr post IV dose); 76.1% in assay [3] (4 hr post IV dose); 76.1% in assay [3] (6 hr post IV dose); 70.7% in assay [3] (8 hr post IV dose); 61.6% in assay [3] (24 hr post IV dose). Further, the inhibition at 12.5 mg/kg in assay [4] (1 hr post IV dose) was 48.4%; in assay [4] (2 hr post IV dose), 12.6%; in assay [4] (4 hr post IV dose), 20.5%; in assay [4] (6 hr post IV dose) it was 51.7%; in assay [4] (8 hr post IV dose), 20.1%; in assay [4] (24 hr post IV dose), 6%.
